# Measurements published in ChEMBL document CHEMBL1125567, “Novel cAMP PDE III inhibitors: 1,6-naphthyridin-2(1H)-ones” (J Med Chem, 1992).
# Legend:
# [1] = molecular target: Phosphodiesterase 3 (Canis lupus familiaris); test: In vitro inhibitory activity against cAMP PDE III.
# [2] = test system: Phosphodiesterase 3 (Canis lupus familiaris); test: In vitro inhibition of cAMP PDE III by the compound at a concentration of 10 uM
# [3] = test system: Phosphodiesterase 3 (Canis lupus familiaris); test: In vitro inhibition of cAMP Phosphodiesterase 3 at a concentration of 10 uM
# [4] = test system: Phosphodiesterase 3 (Canis lupus familiaris); test: Inhibition of cAMP PDE 3 at 10 uM
# [5] = molecular target: Phosphodiesterase 3 (Canis lupus familiaris); test: Inhibition of cAMP PDE 3
# [6] = molecular target: Phosphodiesterase 3 (Canis lupus familiaris); test: Inhibition of cAMP Phosphodiesterase 3
# [7] = test system: Phosphodiesterase 3 (Canis lupus familiaris); test: Inhibition of cAMP Phosphodiesterase 3 at 10 uM
# [8] = molecular target: Phosphodiesterase 3 (Canis lupus familiaris); test: Inhibition of cAMP PDE 3; remark: listed apart in the source
IC50 [1] [µM],inhibition [2] [%],inhibition [3] [%],SMILES,further results
0.23,91,,Nc1ccc(-c2nccc3nc(O)ccc23)cc1,
,,56,Oc1ccc2c(-n3ccnc3)nccc2n1,
3.7,58,,OCc1nccc2nc(O)ccc12,
,,37,Cc1cc2cnccc2nc1O,
,,,Cc1nccc2[nH]c(=O)ccc12 [MEDORINONE],inhibition [4]: 67%; IC50 [5]: 0.55 µM
0.14,74,,Oc1ccc2c(-c3ccco3)nccc2n1,
,,39,Cc1nccc2nc(O)c(C(N)=O)cc12,
,,24,Cc1nccc2nc(N)ccc12,
,,59,Cc1nccc2nc(O)c(N)cc12,
,,81,Cc1nccc2nc(S)ccc12,IC50 [6]: 0.96 µM
3.1,65,,Cc1c2ccc(=O)[nH]c2cc[n+]1[O-],
,,39,Oc1ccc2c(-n3cccn3)nccc2n1,
,,21,COc1ccc2c(C)nccc2n1,
0.048,83,,CCCc1nccc2nc(O)ccc12,
0.04,87,,CCc1nccc2nc(O)ccc12,
,,30,Cc1cnn(-c2nccc3nc(O)ccc23)c1,
,,81,Oc1ccc(-c2nccc3nc(O)ccc23)cc1,IC50 [6]: 0.6 µM
2.8,72,,Cc1cn(-c2nccc3nc(O)ccc23)cn1,
,,58,OCc1cn(-c2nccc3nc(O)ccc23)cn1,
0.14,79,,Oc1ccc2c(-c3cccs3)nccc2n1,
,,43,Oc1ccc2c(-n3cnc(-c4ccccc4)c3)nccc2n1,
,,,Cc1nccc2nc(Cl)ccc12,inhibition [7]: 18%
1.4,78,,Oc1ccc2c(-c3ccccc3)nccc2n1,
,,39,Cc1ncn(-c2nccc3nc(O)ccc23)n1,

IC50 [1] [µM],inhibition [2] [%],inhibition [3] [%],SMILES,further results
0.3,78,,Oc1ccc2c(-c3ccc(Cl)cc3)nccc2n1,
,,,Oc1ccc2c(-n3cnc(Br)c3)nccc2n1,inhibition [7]: 43%
0.57,81,,CC(C)Cc1nccc2nc(O)ccc12,
,,34,Cc1nccn1-c1nccc2nc(O)ccc12,
,,,Oc1ccc2c(C(Cl)Cl)nccc2n1,inhibition [7]: 83%; IC50 [8]: 0.16 µM
,,52,Cc1nccc2nc(O)c(C#N)cc12,
3.2,64,,COc1ccc(-c2nccc3nc(O)ccc23)cc1,
18.8,55,,Oc1ccc2cnccc2n1,
0.94,78,,Oc1ccc2c(-c3ccc(F)cc3)nccc2n1,
,,46,O=[N+]([O-])c1cn(-c2nccc3nc(O)ccc23)cn1,
,,18,Cc1ncc([N+](=O)[O-])n1-c1nccc2nc(O)ccc12,
,,21,Cc1cn(-c2nccc3c2ccc(=O)n3C)cn1,
,,,Oc1ccc2c(-n3cncn3)nccc2n1,inhibition [7]: 50%
1.42,85,,CC(=O)c1nccc2nc(O)ccc12,
,,13,Oc1ccc2c(-n3cnc(C(F)(F)F)c3)nccc2n1,
,,53,Cc1cc2nc(O)ccc2cn1,
,,36,Cn1c(=O)ccc2c(-c3ccccc3)nccc21,
2.2,78,,Oc1ccc2c(-c3ccncc3)nccc2n1,
,,51,Cc1nccc2nc(O)c(O)cc12,
,,,Oc1ccc2c(Br)nccc2n1,inhibition [7]: 70%; IC50 [8]: 0.17 µM
,,28,Cc1ncn(-c2nccc3nc(O)ccc23)c1C,
,,55,Oc1ccc2c(-c3ccc(Br)cc3)nccc2n1,
,,17,Cc1nccc2c1ccc(=O)n2C,
